Target: Recombinant Human Enteropeptidase (Homo sapiens (Human), UniProt P98073)
Assay: Enteropeptidase Inhibition Assay
Format: biochemical
Details: substrate Acetyl-Asp-Asp-Asp-Asp-Lys-AFC 30 μM, 30° C., 1 hour; Ki calculated from IC50 using Cheng-Prusoff equation
Method: Enteropeptidase Inhibition Assay
The inhibitory activity of the enteropeptidase inhibitor synthesized using the purified Recombinant Human Enteropeptidase and the substrate Acetyl-Asp-Asp-Asp-Asp-Lys-AFC (BioVision) was measured. 7.2 ng/mL of Enteropeptidase diluted with a buffer (20 mM Tris, 50 mM NaCl, pH 7.5) in a 96 well plate (Costar), 30 μM of Acetyl-Asp-Asp-Asp-Asp-Lys-AFC, several concentrations of Enteropeptidase inhibitors (1% DMSO concentration) were dispensed such that a final volume was 100 μL, and then the enzyme reaction was carried out at 30° C. for 1 hour. At this time, 1% DMSO, a substrate and Enteropeptidase instead of the compound were dispensed onto positive control wells, and 1% DMSO and a substrate were dispensed onto negative control wells. The enzyme reaction was […] using an excitation wavelength of 380 nm and an emission wavelength of 500 nm in a fluorescence spectrometer, and then the rate of increase in fluorescence (milli-units per min) between 20 and 60 minutes was measured.
The fluorescence measurement values reduced by the inhibitor diluted at each concentration were converted into relative values % of the positive control group (100% reactivity) and the negative control group (0% reactivity), and used to calculate IC50 values. IC50 is the concentration of the inhibitor that inhibits the enzyme activity by 50%, and was calculated using PRISM (GraphPad). Ki values were calculated from the IC50 values using Cheng-Prusoff equation.

Sequence of Recombinant Human Enteropeptidase (P98073 whole entry): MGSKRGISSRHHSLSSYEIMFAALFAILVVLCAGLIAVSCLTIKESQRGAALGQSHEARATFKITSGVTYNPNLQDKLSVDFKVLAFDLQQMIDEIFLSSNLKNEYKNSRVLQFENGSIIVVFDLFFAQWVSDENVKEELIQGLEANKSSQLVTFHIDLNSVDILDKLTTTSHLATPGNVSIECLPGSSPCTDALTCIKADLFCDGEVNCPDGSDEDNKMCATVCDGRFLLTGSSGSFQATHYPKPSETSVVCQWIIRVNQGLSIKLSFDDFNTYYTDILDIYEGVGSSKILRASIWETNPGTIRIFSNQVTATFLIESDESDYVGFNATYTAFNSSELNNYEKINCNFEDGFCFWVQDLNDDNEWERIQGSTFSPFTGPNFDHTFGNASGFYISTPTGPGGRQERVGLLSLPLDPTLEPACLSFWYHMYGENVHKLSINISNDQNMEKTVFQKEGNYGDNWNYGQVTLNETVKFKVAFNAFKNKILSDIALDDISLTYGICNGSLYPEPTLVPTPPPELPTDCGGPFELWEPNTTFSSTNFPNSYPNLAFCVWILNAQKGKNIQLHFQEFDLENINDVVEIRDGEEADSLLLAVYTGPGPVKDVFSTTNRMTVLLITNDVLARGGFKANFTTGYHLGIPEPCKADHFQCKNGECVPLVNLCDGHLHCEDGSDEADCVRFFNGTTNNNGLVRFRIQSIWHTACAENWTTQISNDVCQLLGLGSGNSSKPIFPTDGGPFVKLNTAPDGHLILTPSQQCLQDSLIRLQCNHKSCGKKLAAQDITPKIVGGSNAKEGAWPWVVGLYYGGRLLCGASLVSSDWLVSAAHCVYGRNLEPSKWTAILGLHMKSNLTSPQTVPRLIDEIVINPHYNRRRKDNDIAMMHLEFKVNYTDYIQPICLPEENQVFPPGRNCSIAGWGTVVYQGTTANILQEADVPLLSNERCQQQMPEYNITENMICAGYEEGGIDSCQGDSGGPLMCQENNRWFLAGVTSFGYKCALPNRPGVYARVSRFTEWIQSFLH

| SMILES | Ki [nM] |
| --- | --- |
| CN(CCC(=O)O)c1nc2ccc(C(=O)Oc3ccc(C(=N)N)cc3F)cc2s1 [Example 77, 3-((6-((4-Carbamimidoyl-2-fluorophenoxy)carbonyl)benzo[d]thiazol-2-yl)(methyl) Amino)propanoic Acid] | 0.57 |
| N=C(N)c1ccc(OC(=O)c2ccc3nc(N4CCC(C(=O)Nc5ccccc5)CC4)sc3c2)cc1 [Example 80, 4-Carbamimidoylphenyl 2-(4-(phenylcarbamoyl)piperidin-1-yl)benzo[d]thiazole-6-carboxylate] | 23 |
| N=C(N)c1ccc(OC(=O)c2ccc3nc(N4CCC(NC(=O)c5ccccc5)CC4)sc3c2)c(F)c1 [Example 82, 4-Carbamimidoyl-2-fluorophenyl 2-(4-benzoamidopiperidin-1-yl)benzo[d]thiazole-6-carboxylate] | 1.9 |
| N=C(N)c1ccc(OC(=O)c2ccc3nc(N4CCC(NC(=O)c5ccccc5)CC4)sc3c2)cc1 [Example 83, 4-Carbamimidoylphenyl 2-(4-benzoamidopiperidin-1-yl)benzo[d]thiazole-6-carboxylate] | 9.7 |
| CCN(CCC(=O)OC)c1nc2ccc(C(=O)Oc3ccc(C(=N)N)cc3F)cc2s1 [Example 84, 4-Carbamimidoyl-2-fluorophenyl 2-(ethyl(3-methoxy-3-oxopropyl)amino)benzo[d]thiazole-6-carboxylate] | 2.2 |
| CCN(CCC(=O)O)c1nc2ccc(C(=O)Oc3ccc(C(=N)N)cc3F)cc2s1 [Example 85, 3-((6-((4-Carbamimidoyl-2-fluorophenoxy)carbonyl)benzo[d]thiazol-2-yl)(ethyl)amino)propanoic Acid] | 0.55 |
| CN(CC(C)(C)C(=O)O)c1nc2ccc(C(=O)Oc3ccc(C(=N)N)cc3)cc2s1 [Example 86, 3-((6-((4-Carbamimidoylphenoxy)carbonyl)benzo[d]thiazol-2-yl)(methyl)amino)-2,2-dimethylpropanoic Acid] | 10 |
| CCn1/c(=N/CC(C)(C)C(=O)OC)sc2cc(C(=O)Oc3ccc(C(=N)N)cc3F)ccc21 [Example 87, 4-Carbamimidoyl-2-fluorophenyl (Z)-3-ethyl-2-((3-methoxy-2,2-dimethyl-3-oxopropyl)imino)-2,3-dihydrobenzo[d]thiazole-6-carboxylate] | 4 |
| CCn1/c(=N/CC(C)(C)C(=O)O)sc2cc(C(=O)Oc3ccc(C(=N)N)cc3F)ccc21 [Example 88, (Z)-3-((6-((4-Carbamimidoyl-2-fluorophenoxy)carbonyl)-3-ethylbenzo[d]thiazole-2(3H)-ylidine)amino)-2,2-dimethylpropanoic Acid] | 0.16 |
